# Test results taken from PubChem BioAssay (NCI).
# Values joined by “and” are separate entries in the source; they are usually repeats but may differ in a detail not shown here. Identical values can stand only once.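 Compound exposure: 48 hours, 5 concentrations, 96-well plates. GI50 marks 50% less growth. TGI marks complete inhibition of growth.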
# Tested on: MDA-MB-468 breast
# Experiment: NCI anticancer screen, dose series, 48 h
Compound,GI50,TGI
O=C(Nc1c(Cl)cccc1Cl)Oc1cccc2cccnc12,2910 nM,13900 nM
O=C(Nc1cccc(Cl)c1)Nc1cc(C(F)(F)F)ccc1Cl,1990 nM,4730 nM
CN1CCN(CCCn2c3c(sc4ncccc43)c(=O)n3nnc(-c4ccccc4)c23)CC1,1720 nM,3250 nM
COc1cc(/C=C/[N+](=O)[O-])cc(OC)c1,1640 nM,3530 nM
O=C(Nc1ccc([N+](=O)[O-])cc1Cl)c1cc(Cl)ccc1O,121 nM and 260 nM,388 nM and 782 nM
CCCCCCCN(CCCCCCC)C(=N)c1ccc(OC)c2ccccc12,1230 nM,2810 nM
CC1(/C=C/c2ccc(-c3ccccc3)cc2)CCn2cnc3ncnc(c32)N1O (configuration not stated),276 nM,872 nM
c1ccc2c(c1)CCCc1nnc3nc4ccccc4n3c1-2,6550 nM,74700 nM
C#Cc1cccc(NC(=O)C2CCCCN2C(=O)CCl)c1 (configuration not stated),11200 nM,34100 nM
O=C(/C=C/c1cc2ccccc2[nH]c1=O)c1ccc(O)cc1,2120 nM,5300 nM
CNC(=O)c1cc(Oc2ccc(NC(=O)Nc3ccc(Cl)c(C(F)(F)F)c3)cc2)ccn1,1420 nM and 2030 nM and 2090 nM,7910 nM and 8050 nM and 7700 nM
Cc1ccccc1N=C(c1ccccc1)C1C(=O)c2ccccc2C1=O,6220 nM,> 100000 nM
CCN1C(=O)N(CC)C2C1NN=c1s/c(=C\c3ccc(Br)cc3)c(=O)n12 (configuration not stated),69.7 nM,516 nM
O=C1NC(=O)/C(=C/c2ccc3nccc(-c4ccncc4)c3c2)S1,185 nM,1170 nM
COc1cc2cc(C(=O)Nc3ccccc3)c(N)nc2cc1OC,21900 nM,> 100000 nM
Nc1nc(N)c2c(n1)NC(c1ccc(Cl)cc1)C1CCc3ccccc3C1=N2 (configuration not stated),1600 nM,14500 nM
COc1cc(N2CCN(C(C)C)CC2)ccc1Nc1nc(Nc2ccc(F)cc2C(N)=O)c2cc[nH]c2n1,999 nM,5490 nM
CC(=O)OCc1cc[c]([Hg][Cl])o1,1500 nM,3440 nM
Cc1c(-c2c(F)cc(C(N)=O)c3[nH]c4c(c23)CC[C@H](C(C)(C)O)C4)cccc1-n1c(=O)c2cccc(F)c2n(C)c1=O,3060 nM,> 100000 nM
COC1C[C@H](O[C@@H]2C[C@H](O[C@@H]3C[C@H](O[C@@H]4C(=O)c5c(cc6cc(O[C@H]7C[C@@H](O[C@H]8C[C@@H](O)[C@H](O)C(C)O8)[C@H](O)C(C)O7)c(C)c(O)c6c5O)C[C@H]4C(OC)C(=O)[C@@H](O)[C@@H](C)O)OC(C)[C@H]3O)OC(C)[C@@H]2O)OC(C)[C@@H]1O (some centres not stated),109 nM,723 nM
Cc1cc(C(=O)NOCCO)c(Nc2ccc(I)cc2F)n(C)c1=O,> 10000 nM and 68200 nM,> 100000 nM

Compound,GI50,TGI
O=c1[nH]c(=O)n(C2C[C@@H](O)[C@@H](CO)O2)cc1F (some centres not stated),44.4 nM,36300 nM
COc1ccc(COc2ccc(Cc3cnc(N)nc3N)cc2OC)cc1,3270 nM,19600 nM
Cc1cccc(Nc2ncc(-c3ccccc3)o2)c1,7050 nM,> 25000 nM
Nc1cc2c3ccccc3ccc2c2ccccc12,> 100000 nM,> 100000 nM
C[C@H]1O[C@@H](O[C@H]2[C@@H](O)C[C@H](O[C@H]3[C@@H](O)C[C@H](O[C@H]4CC[C@]5(C)C6CC[C@]7(C)[C@@H](C8=CC(=O)OC8)CC[C@]7(O)C6CC[C@@H]5C4)O[C@@H]3C)O[C@@H]2C)C[C@H](O)[C@@H]1O (some centres not stated),66.7 nM,202 nM
Fc1ccc(Nc2ccnc(N3CCN(c4ccnc5cc(Cl)ccc45)CC3)n2)cc1,2410 nM,19300 nM
Clc1ccc(Nc2nnc(COc3ccccc3)c3ccccc23)cc1,1490 nM,7620 nM
Cn1cc(-c2nc(-c3c[nH]c4ccccc34)cs2)c2cccnc21,252 nM,827 nM
COc1cccc(/C=C/C(=O)c2cc3c(N)c(C(=O)Nc4ccccc4)sc3nc2C)c1,906 nM,1840 nM
COc1ccc(C2CC(=O)Nc3c2c(C)nn3-c2nc3ccccc3[nH]2)cc1OC (configuration not stated),3090 nM,16800 nM
COc1ccc(CNCCN2C(=O)c3ccc4c5c(ccc(c35)C2=O)C(=O)N(CCNCc2ccc(OC)c(OC)c2OC)C4=O)c(OC)c1OC,82.2 nM,164 nM
C=C1C(=O)O[C@H]2[C@H]1CC/C(COC(=O)NCCc1ccc(Br)cc1)=C\CC[C@@]1(C)O[C@@H]21,841 nM,2470 nM
COc1ccc(N2CCN(c3nc(-c4ccccn4)nc4sc5c(c34)CCCCCC5)CC2)cc1,4110 nM,> 100000 nM
O=[N+]([O-])c1ccc(NC(c2ccccc2)c2ccc3cccnc3c2O)cc1 (configuration not stated),363 nM,2050 nM
O=C(COc1ccc(Cl)cc1Cl)NNc1ccc([N+](=O)[O-])cc1,37500 nM,> 100000 nM
COc1cc2cc(Oc3ccc(NC(=O)c4cccc(C(F)(F)F)c4)cc3)c(C)nc2cc1OCCN1CCCCC1,14100 nM,29100 nM
Cn1cc(-c2[nH]c3cc(NC(=O)[C@H](N)C4CCCCC4)cc4c3c2C=NNC4=O)cn1,164 nM and 503 nM,827 nM and > 5300 nM
O=C(Nc1n[nH]c2cc(-c3ccc(F)cc3)ccc12)C1CC1,3420 nM,> 16200 nM
c1ccc(OCC[P+](c2ccccc2)(c2ccccc2)c2ccccc2)cc1,152 nM,736 nM
CS(=O)(=O)Nc1cc(-c2ccc3ncnc(Nc4ccc(OCc5ccccn5)c(Cl)c4)c3c2)cnc1Cl,156 nM,780 nM
